Measurements from US20180263975A1, “Methods Of Treating Motor And Movement Disorders And Side Effects Thereof Associated with Parkinson's Disease Treatments” (AMARANTUS BIOSCIENCE HOLDINGS, INC., priority 2015, published 2018).
“Also recorded” adds a separate entry of the source.

Tests used:
[1] = tested on: Parkinson's patients with L-DOPA induced dyskinesias; test: Rush Dyskinesia Rating Scale AUC after a levodopa challenge dose; format: in vivo, human; settings: 5 mg dose
From the text: This example describes a multicenter, randomized, double-blind, placebo-controlled, dose finding study of oral eltoprazine in Parkinson's patients with L-DOPA induced dyskinesias, in a levodopa challenge-dose setting in Parkinson's Disease. A total of 22 patients participated in the study, out of which 18 patients fulfilled the protocol in terms of eligibility, interventions, and outcome assessment. […]
During each of five visits, and after a two-hour fast, each patient received a challenge dosage (150%—up to a maximum of 250 mg) of levodopa. […] The patients were periodically recorded for 180 minutes after treatment, and the videos were evaluated in a blinded manner.
The term “Rush Dyskinesia Rating Scale” and “Rush DRS” refer to an observer-based rating scale based on fixed movements. The numerical parts of the Rush DRS are recorded separately from the descriptive parts, as described by Goetz et al., in Movement Disorders, Vol. 9, No. 4, 1994, 390-394.
(§1) Filming occurred 30 minutes prior to, and every 30 minutes up to 180 minutes after a challenge test of L-DOPA and study medication. […] Videotaped records of each sequence were assessed by separate individual qualified raters at both of the two clinical centers. […]

dopamine receptors = settings: cited from earlier work
[2] = Daytime plasma concentration of eltoprazine under dosing regimens
[3] = tested on: Parkinson's patients with L-DOPA induced dyskinesias; test: Clinical Dyskinesia Rating Scale (CDRS) rating of L-DOPA induced dyskinesia after a levodopa challenge dose; format: in vivo, human
From the text: (§2) This example describes a multicenter, randomized, double-blind, placebo-controlled, dose finding study of oral eltoprazine in Parkinson's patients with L-DOPA induced dyskinesias, in a levodopa challenge-dose setting in Parkinson's Disease. A total of 22 patients participated in the study, out of which 18 patients fulfilled the protocol in terms of eligibility, interventions, and outcome assessment.
During the first visit, patients underwent screening for inclusion/exclusion criteria and safety assessments. Symptoms of parkinsonism, depression, and anxiety were assessed, and screening for significant L-DOPA dyskinesias were conducted using a challenge dose (150%) of L-DOPA. Subjects who were taking a prohibited medication were required to complete a washout period of appropriate length, as determined by the investigator. […]
(§3) During each of five visits, and after a two-hour fast, each patient received a challenge dosage (150%—up to a maximum of 250 mg) of levodopa. […] The patients were periodically recorded for 180 minutes after treatment, and the videos were evaluated in a blinded manner. […]
as §1

[4] = tested on: Parkinson's patients with L-DOPA induced dyskinesias; test: Safety and tolerability in the dose finding study; format: in vivo, human; settings: single oral doses 2.5, 5, 7.5 mg in PD patients
From the text: This study also assessed the safety and tolerability of eltoprazine in adults with Parkinson's Disease using the following measures: a) population mean values for the change in dyskinesia ratings between the placebo and screening baseline values and any of the eltoprazine dosages used, calculated as the peak-effect on CDRS of any study medication; b) population mean values for the change in dyskinesia ratings between the placebo and screening baseline values and any of the eltoprazine dosages used, calculated as the AuC on Rush DRS of any study medication; c) any changes in the UPDRS-III total score; d) any change in the diary data set, between the baseline and placebo and any of the three study medication tests; e) any deterioration of the HADS scores after study medication compared with placebo; f) any development of depression over the course of the study period, determined by the Montgomery Asberg Depression Rating Scale (MADRS) and clinical judgment; g) comparison between the effects on Rush Dyskinesia Rating Scale (DRS) and Clinical Dyskinesia Rating Scale (CDRS) Area under the Curve (AuC) and peak of dose effects for the three study medication dosages.
After screening, each patient participated in the study for approximately 6-10 weeks. The duration of the study was about 30 weeks. […]

5-HT1a/5-HT1b receptor = settings: cited from earlier work
5-HT1d receptor = settings: Sijbesma 1990; cited from earlier work
[5] = tested on: Parkinson's patients with L-DOPA induced dyskinesias; test: UPDRS-III rating of parkinsonian symptoms (levodopa efficacy) after a levodopa challenge dose; format: in vivo, human; settings: 5 mg and 7.5 mg doses
From the text: as §2, §3
Filming occurred 30 minutes prior to, and every 30 minutes up to 180 minutes after a challenge test of L-DOPA and study medication. […] Videotaped records of each sequence were assessed by separate individual qualified raters at both of the two clinical centers.
Analyses were done on both the intention-to-treat (ITT) and per protocol (PP) population, if applicable. The change between test sessions of the highest observed Unified Parkinson's Disease Rating Scale-III (UPDRS) within each session will be calculated between the randomized placebo test session and each active test session and will be analyzed with Wilcoxon Signed Rank test on the ITT population.

c1cc2c(c(N3CCNCC3)c1)OCCO2 [eltoprazine, 1-(2,3-dihydro-1,4-benzodioxin-5-yl) piperazine]
reduction of LID measured by the Rush Scale AUC [1]: reduced LID in PD patients statistically significantly | affinity for dopamine receptors (dopamine receptors): no relevant affinity | daytime plasma concentration profile (FIG. 4) ([2]; 5 mg and 7.5 mg b.d. at 4 hour intervals (2.5, 5, 7.5, 10 mg compared)): optimizes daytime plasma concentration from 10 AM to 8 PM | daytime plasma concentration profile (FIG. 3) ([2]; 7.5 mg twice daily at 4 or 6 hourly intervals (4, 6, 8, 12 h compared)): optimizes daytime plasma concentration from 10 AM to 8 PM | plasma concentration of drug ([2]; dose of 5 mg): approximately 10 ng/ml | plasma concentration of drug ([2]; dose of 7.5 mg): approximately 17 ng/ml | plasma concentration profile (FIG. 5) ([2]; three times daily 2.5, 5, 7.5 mg at 4 hour intervals): achieve maximal plasma concentrations in the late afternoon/evening period into the night time | reduction of LID measured by the CDRS scale, compared to placebo ([3]; 5 mg single oral dose with 150% L-DOPA challenge, p=0.0007): statistically significantly reduced LID | reduction of LID measured by the CDRS scale, compared to placebo ([3]; 7.5 mg single oral dose with 150% L-DOPA challenge, p=0.0467): statistically significantly reduced LID | serious adverse events [4]: no serious adverse events | tolerability [4]: well tolerated | affinity for 5-HT1a versus 5-HT1b receptors, mixed agonist (5-HT1a/5-HT1b receptor; Schipper 1990): roughly equipotent affinity | receptor selectivity of binding profile (5-HT1a/5-HT1b receptor; with respect to all receptors other than 5-HT1, Sijbesma 1990): selective 5-HT1 ligand | affinity for the 5-HT1d receptor compared with serotonin (5-HT1d receptor): lower affinity | effect on L-DOPA efficacy measured by the UPDRS score (UPDRS-III) [5]: did not affect L-DOPA efficacy; also recorded: no significant change
